Source: patent US12486259B2, “FXR agonist having pyrazine structure, and preparation method and use” (JIANGSU TASLY DIYI PHARMACEUTICAL CO., LTD., priority 2020, dated 2025)

Tested on: C57/BL6 mice fed MCD diet
Assay: Pharmacodynamic test in methionine-choline deficient diet (MCD) model of non-alcoholic fatty liver disease
Format: in vivo
Conditions: for Weight, 0 week / Food intake, 1 week / Weight, 1 week / Food intake, 2 weeks / Weight, 2 weeks / Food intake, 3 weeks / Weight, 3 weeks / Food intake, 4 weeks / Weight, 4 week / liver weight / liver/body weight / ALT, 3 weeks / AST, 3 weeks / ALT, 4 weeks / AST, 4 weeks / HDL (blood lipid) / LDL (blood lipid) / TC (blood lipid) / TG (blood lipid) / HE score / Sirius red staining area / liver TC / liver TG: MCD mice, obeticholic acid 40 mpk; for Weight, 0 week / Weight, 1 week / Weight, 2 weeks / Weight, 3 weeks / Weight, 4 week: TM compounds 30 mpk, once daily by gavage; for Food intake, 1 week / Food intake, 2 weeks / Food intake, 3 weeks / Food intake, 4 weeks / liver weight / liver/body weight / ALT, 3 weeks / AST, 3 weeks / ALT, 4 weeks / AST, 4 weeks / HDL (blood lipid) / LDL (blood lipid) / TC (blood lipid) / TG (blood lipid) / HE score / Sirius red staining area / liver TC / liver TG: TM 30 mpk; for Food intake, 1 week / Food intake, 2 weeks / Food intake, 3 weeks / Food intake, 4 weeks / ALT, 3 weeks / AST, 3 weeks / ALT, 4 weeks / AST, 4 weeks: gavage; for Food intake, 4 weeks / Weight, 4 week / ALT, 4 weeks / AST, 4 weeks / HE score / Sirius red staining area: 4 weeks; for liver weight / liver/body weight / HDL (blood lipid) / LDL (blood lipid) / TC (blood lipid) / TG (blood lipid) / liver TC / liver TG: after 4 weeks; for ALT, 3 weeks / AST, 3 weeks / ALT, 4 weeks / AST, 4 weeks / HDL (blood lipid) / LDL (blood lipid) / TC (blood lipid) / TG (blood lipid): blood; for HE score: liver pathology score (Table 12 criteria); for Sirius red staining area / liver TC / liver TG: liver; for blood lipid levels (in words) / liver triglyceride and cholesterol content (in words) / liver weight and liver/body weight (in words): after 4 weeks of MCD and compounds treatment; for ALT and AST compared to the model group (in words): three weeks after MCD and compounds treatment
Description: Animal strain: C57/BL6, Animal Grade: SPF Grade, Gender: male, Animal Age: 8 weeks old, Animals Received Date: 2018 Sep. 28, Animal Source: Shanghai Lingchang Biotechnology Co. Ltd., Animal Certificate No: SCXK (Shanghai)2013-0018 2013001836799, Mouse feeding Environment: temperature 20-26° C., humidity 40-70%, 12 hour day and night cycle.
5% Solutol HS15/Normal saline: after Solutol HS15 (polyethylene glycol 15 hydroxystearate solubilizer) is dissolved in a water bath at 37° C., 5 ml of it is dissolved in 100 ml of normal saline, thoroughly stirred for later use.
Obeticholic acid/5% Solutol HS15/Normal saline: 0.15 ml Solutol HS15 is added to accurately weighed 12 mg obeticholic acid to fully dissolve it, and 2.85 ml normal saline is added, vigorously mixed and dissolved by the ultrasound. • TM-01 Group/5% Solutol HS15/Normal saline: 2.5 ml of 6 mg/ml TM-01 suspension is taken, 2.5 ml of 5% Solutol HS15/normal saline is added, and the mixture is mixed well. • TM-02 Group/5% Solutol HS15/Normal saline: 2.5 ml of 6 mg/ml TM-02 suspension is taken, 2.5 ml of 5% Solutol HS15/normal saline is added, and the mixture is mixed well. • TM-06 Group/5% Solutol HS15/Normal saline: 2.5 ml of 6 mg/ml TM-06 suspension is taken, 2.5 ml of 5% Solutol HS15/Normal saline is added, and the mixture is mixed well. • TM-09 Group/5% Solutol HS15/Normal saline: 2.5 ml of 6 mg/ml TM-09 suspension is taken, 2.5 ml of 5% Solutol HS15/Normal saline is added, and the mixture is mixed well.
Menstruum and test compounds are administered by gavage at a dose volume of 10 ml/kg;
After reaching the animal house, 70 8-week-old C57/BL6 mice are fed adaptively and randomly divided into 7 groups according to body weight after the average body weight reaches 23 g. They are given the model feed. The first group receives the control diet MCS and the remaining groups receive the MCD diet, while each group of mice receives compound treatment as follows: • Group 1. Control Group: MCS, menstruum, administered once daily by gavage; • Group 2. Model Group: MCD, menstruum, administered once daily by gavage; • Group 3. Obeticholic acid group: MCD, 40 mpk obeticholic acid, administered once daily by gavage; • Group 4. TM-01 Group: MCD, 30 mpk TM-01, administered once daily by gavage; • Group 5. TM-02 Group: MCD, 30 mpk TM-02, administered once daily by gavage; • Group 6. TM-06 Group: MCD, 30 mpk TM-06, administered once daily by gavage; • Group 7. TM-09 Group: MCD, 30 mpk TM-09, administered once daily by gavage; 2.4 Experimental Methods
Body weight and food intake are measured weekly during the experiment. Twenty-one days after administration, tail tips are bled with microcapillaries for AST, ALT measurements. Twenty-eight days after administration, mice are terminated, hearts are bled, and liver tissues are collected and weighed. One portion is snap frozen with liquid nitrogen for subsequent analysis and the other portion are fixed for pathological analysis.
Mouse blood is centrifuged at 5000 rpm for 10 minutes and supernatants are collected for determination of TG (triglycerides), TC (total cholesterol), HDL (high density lipoprotein), LDL (low density lipoprotein), AST (aspartate aminotransferase) and ALT (alanine aminotransferase).
AST and ALT after administration for three and four weeks are determined according to the instructions of kit. The blood lipid index 4 weeks after administration is sent to Adicon Medical Laboratory Co. Ltd. for detection.
The livers are removed from −80° C., homogenized in PBS (phosphate buffered saline), extracted with chloroform methanol organic phase, and subjected to TC and TG assays using the kit, normalized for protein content.
Four weeks after administration, the mice are anesthetized. The heart is bled, the liver is isolated and weighed. The right lobe is snapfrozen with liquid nitrogen and stored at −80° C. for liver lipid analysis. The left lobe is isolated and fixed in 10% formalin for subsequent HE and Sirius Red staining. […]

SMILES	Weight, 0 week [g]	Food intake, 1 week [g]	Weight, 1 week [g]	Food intake, 2 weeks [g]	Weight, 2 weeks [g]	Food intake, 3 weeks [g]	Weight, 3 weeks [g]	Food intake, 4 weeks [g]	Weight, 4 week [g]	liver weight [g]	liver/body weight [%]	ALT, 3 weeks [U/L]	AST, 3 weeks [U/L]	ALT, 4 weeks [U/L]	AST, 4 weeks [U/L]	HDL (blood lipid) [mmol/L]	LDL (blood lipid) [mmol/L]	TC (blood lipid) [mmol/L]	TG (blood lipid) [mmol/L]	HE score	other results
Cc1cc(C(=O)O)cc(C2CC(O)(c3cnc(OCc4c(-c5c(Cl)cccc5Cl)noc4C(C)C)cn3)C2)c1 (stereo not drawn) [TM-09, 3-(3-(5-((3-(2,6-dichlorophenyl)-5-isopropylisoxazol-4-yl)methoxy)pyrazine-2-yl)-3-hydroxycyclobutyl)-5-methyl benzoic acid]	23.60 ± 0.29	2.364 ± 0.186	21.26 ± 0.34	2.707 ± 0.187	19.29 ± 0.39	2.284 ± 0.342	17.18 ± 0.31	2.109 ± 0.661	15.90 ± 0.31	0.74 ± 0.04	4.98 ± 0.25	40.27 ± 21.48	45.04 ± 12.08	14.30 ± 4.19	38.40 ± 4.19	0.56 ± 0.02	2.52 ± 0.07	0.86 ± 0.09	0.54 ± 0.04	1.1	Sirius red staining area: 0.392 ± 0.057 %; liver TC: 37.7 ± 3.65 µmol/g protein; liver TG: 232 ± 18.4 µmol/g protein; blood lipid levels (in words): different reductions in blood lipids; liver triglyceride and cholesterol content (in words): significant lowering effect on liver triglyceride and cholesterol levels; liver weight and liver/body weight (in words): significantly increases mouse liver weight and liver/body weight; ALT and AST compared to the model group (in words): significantly reduced
O=C(O)c1cccc(C2CC(O)(c3cnc(OCc4c(-c5c(Cl)cccc5Cl)noc4C4CC4)cn3)C2)c1 (stereo not drawn) [TM-01, 3-(3-(5-(5-cyclopropyl-3-(2,6-dichlorophenyl)isoxazole-4-ylmethoxy)-2-pyrazine)-1-hydroxycyclobutane) benzoic acid]	23.78 ± 0.47	3.011 ± 0.555	21.24 ± 0.42	2.746 ± 0.466	18.49 ± 0.41	1.909 ± 0.215	16.97 ± 0.38	1.697 ± 0.027	14.70 ± 0.20	0.89 ± 0.05	6.32 ± 0.26	41.58 ± 10.32	53.50 ± 19.62	14.28 ± 13.21	40.36 ± 26.31	0.59 ± 0.11	2.61 ± 0.26	0.95 ± 0.44	0.53 ± 0.10	1	Sirius red staining area: 0.365 ± 0.069 %; liver TC: 34.9 ± 8.2 µmol/g protein; liver TG: 247 ± 54.1 µmol/g protein; blood lipid levels (in words): different reductions in blood lipids; liver triglyceride and cholesterol content (in words): significant lowering effect on liver triglyceride and cholesterol levels; liver weight and liver/body weight (in words): significantly increases mouse liver weight and liver/body weight; ALT and AST compared to the model group (in words): significantly reduced
O=C(O)c1cccc(N2CC(O)(c3cnc(OCc4c(-c5c(Cl)cccc5Cl)noc4C4CC4)cn3)C2)c1 [TM-02, 3-(3-(5-((5-cyclopropyl-3-(2,6-dichlorophenyl)isoxazol-4-yl)methoxy)pyrazine-2-yl)-3-hydroxyazetidin-1-yl) benzoic acid]	23.71 ± 0.35	2.190 ± 0.504	21.52 ± 0.42	2.400 ± 0.288	18.81 ± 0.49	1.688 ± 0.266	16.69 ± 0.34	1.518 ± 0.376	15.48 ± 0.35	0.85 ± 0.05	5.48 ± 0.28	183.36 ± 29.85	113.46 ± 13.79	90.68 ± 42.13	83.24 ± 12.08	0.61 ± 0.02	2.93 ± 0.12	1.25 ± 0.14	0.57 ± 0.06	1.4	Sirius red staining area: 0.398 ± 0.030%; liver TC: 41.7 ± 5.73 µmol/g protein; liver TG: 307 ± 26.3 µmol/g protein; blood lipid levels (in words): different reductions in blood lipids; liver triglyceride and cholesterol content (in words): different lowering effects; liver weight and liver/body weight (in words): significantly increases mouse liver weight and liver/body weight; ALT and AST compared to the model group (in words): showing the same way as the obeticholic acid group
CC(C)c1onc(-c2c(Cl)cccc2Cl)c1COc1cnc(C2(O)CC(c3cccc(C(=O)O)c3)C2)cn1 (stereo not drawn) [TM-06, 3-(3-(5-(5-isopropyl-3-(2,6-dichlorophenyl)isoxazole-4-ylmethoxy)-2-pyrazine)-1-hydroxycyclobutane) benzoic acid]	23.75 ± 0.27	2.356 ± 0.213	21.36 ± 0.27	2.664 ± 0.194	18.29 ± 0.28	2.093 ± 0.250	16.41 ± 0.25	1.932 ± 0.137	15.70 ± 0.22	0.67 ± 0.03	4.23 ± 0.13	48.97 ± 26.07	52.14 ± 18.73	49.13 ± 33.04	45.23 ± 13.21	0.42 ± 0.06	3.01 ± 0.09	0.97 ± 0.16	0.59 ± 0.02	1.6	Sirius red staining area: 0.421 ± 0.081%; liver TC: 38.2 ± 35 µmol/g protein; liver TG: 304 ± 46.5 µmol/g protein; blood lipid levels (in words): different reductions in blood lipids; liver triglyceride and cholesterol content (in words): different lowering effects; liver weight and liver/body weight (in words): significantly increases mouse liver weight and liver/body weight; ALT and AST compared to the model group (in words): significantly reduced
